Like-named read-outs stand apart in the source and are kept apart here.
Experiments:
human tumours = conditions: phase I, monotherapy, cited from earlier work
[1] = tested on: A549 (lung carcinoma) xenografts; conditions: for Regression Duration: Example 1, days tumour volume less than original treatment volume; for Tumour Growth Delay: Example 1, treated versus control tumours to quadruple in volume (control 25 days); for Median VQT: Example 1, tumour volume quadrupling time; for Response CR (Complete Response): Example 1, undetectable tumour over two weeks; for Response PR (Partial Response): Example 1, ≧50% reduction in tumour size sustained over two weeks
Method: (§1) Xenografts for human lung and colorectal cancers are set-up in groups of nude, athymic mice. The cell lines selected are HT29 (ATCC number HTB-38), a colorectal adenocarcinoma, and A549 (ATCC number CCL-185), a lung carcinoma.
(§2) For this study, DMXAA is given twice in each of Weeks 1 and 4 of the study.
(§3) Xenografts are measured two or three times per week and their absolute volume recorded; xenograft tumour volume relative to that recorded on Day 0 (V0) is then calculated. The time taken to reach a relative tumour volume of 3× V0 is used as a surrogate marker for survival.

[2] = tested on: HT29 (colorectal) xenografts; conditions: for Regression Duration: days tumour volume less than original treatment volume; for Tumour Growth Delay: treated versus control tumours to quadruple in volume (control 17 days); for Median VQT: tumour volume quadrupling time; for Response CR (Complete Response): undetectable tumour over two weeks; for Response PR (Partial Response): ≧50% reduction in tumour size sustained over two weeks
Method: as §1, §2, §3

[3] = tested on: A549 (lung carcinoma) xenografts; test: A549 xenograft study with paclitaxel triple combination (Example 2); type: in vivo, mice; conditions: for Drug deaths: Paclitaxel 5, Avastin 5, DMXAA 21 mg/kg by injection; for Regression Duration: days tumour volume less than original treatment volume; for Tumour Growth Delay: treated versus control tumours to quadruple in volume (control 25 days); for Median VQT: tumour volume quadrupling time; for Response CR (Complete Response): undetectable tumour over two weeks; for Response PD (Progressive Disease): ≧50% increase in tumour size; for Response PR (Partial Response): ≧50% reduction in tumour size sustained over two weeks
Text: The experimental set-up of this example with respect to the xenografts, mice and cell line is as described in Example 1 above.

[4] = diclofenac 100 mg/kg i.p., cited from earlier work
[5] = cited from earlier work

| Compound | TTP (median time to disease progression) ([1]; Example 1) | Regression Duration [1] | Tumour Growth Delay [1] | Median VQT [1] | Response CR (Complete Response) [1] | Response PR (Partial Response) [1] | Regression Duration [2] | Tumour Growth Delay [2] | Median VQT [2] | Response CR (Complete Response) [2] | Response PR (Partial Response) [2] | Response SD (Stable Disease) [3] | TTP (median time to disease progression) [3] | Drug deaths [3] | Regression Duration [3] | Tumour Growth Delay [3] | Median VQT [3] | Response CR (Complete Response) [3] | Response PD (Progressive Disease) [3] | Response PR (Partial Response) [3] | also measured |
| --- | --- | --- | --- | --- | --- | --- | --- | --- | --- | --- | --- | --- | --- | --- | --- | --- | --- | --- | --- | --- | --- |
| Cc1ccc2c(=O)c3cccc(CC(=O)O)c3oc2c1C [DMXAA, 5,6-dimethylxanthenone-4-acetic acid] | 14 days | 0 days | 32 days | 57 days | 0 | 0 | 10 days | 29 days | 46 days | 0 | 1 | 0 | 7 days | 4/11 | 0 days | >21 days | >46 days | 0 | 7 | 0 | tumour blood flow (dynamic MRI) (human tumours; well-tolerated doses): significant reduction in tumour blood flow; tumour responses (human tumours): very few tumour responses; Response SD (Stable Disease) ([1]; Example 1): 0; Response PD (Progressive Disease) ([1]; Example 1, ≧50% increase in tumour size): 11; Response SD (Stable Disease) [2]: 0; TTP (median time to disease progression) [2]: 16 days; Response PD (Progressive Disease) ([2]; ≧50% increase in tumour size): 5 |
| O=C(O)Cc1ccccc1Nc1c(Cl)cccc1Cl [diclofenac] | – | – | – | – | – | – | – | – | – | – | – | – | – | – | – | – | – | – | – | – | increase in the plasma DMXAA AUC ([4]; female mice): 31%; increase in T1/2 of DMXAA ([4]; male and female mice, P<0.05): threefold; increase in the plasma DMXAA AUC ([4]; male mice): 24% |
| CC(=O)O[C@H]1C(=O)[C@@]2(C)[C@H]([C@H](OC(=O)c3ccccc3)[C@]3(O)C[C@H](OC(=O)[C@H](O)[C@@H](NC(=O)c4ccccc4)c4ccccc4)C(C)=C1C3(C)C)[C@]1(OC(C)=O)CO[C@@H]1C[C@@H]2O [Paclitaxel, paclitaxel] | – | – | – | – | – | – | – | – | – | – | – | 0 | 7 days | 0/11 | 0 days | 3 days | 28 days | 0 | 11 | 0 | – |
| O=C1CCC(N2C(=O)c3ccccc3C2=O)C(=O)N1 (centres unmarked) [Thalidomide, thalidomide] | – | – | – | – | – | – | – | – | – | – | – | – | – | – | – | – | – | – | – | – | increase of the AUC of DMXAA ([5]; in plasma, liver and spleen): 1.8 times; increase of the AUC of DMXAA ([5]; in tumour): three |
| Avastin ™: humanised monoclonal antibody that binds to vascular endothelial growth factor (VEGF) | 8 days | 0 days | 42 days | 67 days | 0 | 1 | 0 days | 17 days | 34 days | 0 | 0 | – | 7 days | 0/11 | 0 days | >17 days | >42 days | 0 | – | 0 | – |
